Source: patent publication US20240400584A1, “COMPOUNDS AND METHODS FOR MODULATING SPLICING” (REMIX THERAPEUTICS INC., priority 2021, published 2024)
pIC50: −log10 of the molar value.

Columns and labels:
HTT [1] = assay: RT-qPCR splicing assay, HTT AJ/CJ mRNA; type: cell-based, human; conditions: Homo sapiens, A673 or K562 cells; for pIC50: decrease in canonical junction mRNA; for AC50: increase in alternative junction mRNA
In short: (§1)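 Following 24 h compound exposure at 37 °C (11 points, 3-fold, highest 10 uM; DMSO ≤0.25%), A673 or K562 lysates underwent RT-qPCR for exon-inclusion (AJ) and canonical (CJ) junctions of HTT and MYB. Relative quantification used housekeeping-gene ΔCt and DMSO-normalized ΔΔCt, converted to percentage response.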

MYB [2] = assay: RT-qPCR splicing assay, MYB AJ/CJ mRNA; type: cell-based; conditions: Homo sapiens, A673 or K562 cells, 24 hours; for pIC50: decrease in canonical junction mRNA; for AC50: increase in alternative junction mRNA
In short: as §1

SMN2 = assay: Gene panel canonical junction qPCR assay, SMN2 CJ mRNA (Table 7); type: cell-based; conditions: Homo sapiens, read-out: SMN2 CJ mRNA decrease IC50
In short: (§2)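 Read-out is the IC50 for loss of canonical-junction mRNA, fitted with a four-parameter logistic curve to percentage response. Response came from RT-qPCR on compound-treated A673 or K562 cell lysates, ΔCt against a housekeeping gene and normalized to DMSO.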

Target C = assay: Gene panel canonical junction qPCR assay, Target C CJ mRNA (Table 7); type: cell-based, human; conditions: Homo sapiens, read-out: Target C CJ mRNA decrease IC50
In short: as §2

HTT [3] = assay: Gene panel canonical junction qPCR assay, HTT CJ mRNA (Table 7); type: cell-based, human; conditions: Homo sapiens, read-out: HTT CJ mRNA decrease IC50
In short: as §2

MYB [4] = assay: Gene panel canonical junction qPCR assay, MYB CJ mRNA (Table 7); type: cell-based; conditions: Homo sapiens, read-out: MYB CJ mRNA decrease IC50
In short: as §2

Structure (SMILES) | pIC50 (HTT [1]; 24 h) | AC50 (HTT [1]; 24 h) [nM] | pIC50 (MYB [2]) | AC50 (MYB [2]) [nM] | pIC50 (SMN2) | pIC50 (Target C) | pIC50 (HTT [3]) | pIC50 (MYB [4]) | pIC50 (HTT [1]; 24 hours) | AC50 (HTT [1]; 24 hours) [nM]
CN(C)[C@H]1[C@@H]2CN(c3ccc4c(n3)OCc3cc(-n5cccn5)ccc3-4)C[C@@H]21 [Compound 197] | 5.00 to 6.00 | > 10000 | < 5.00 | 1000 to 10000 | < 5.00 | < 5.00 | 5.00 to 6.00 | < 5.00 | – | –
c1cnn(-c2ccc3c(c2)COc2nc(O[C@@H]4C[C@H]5CCC[C@@H](C4)N5)ccc2-3)c1 [Compound 198] | 6.00 to 7.00 | 100 to 1000 | 6.00 to 7.00 | 100 to 1000 | 6.00 to 7.00 | 5.00 to 6.00 | 6.00 to 7.00 | 6.00 to 7.00 | – | –
[2H]C([2H])([2H])N(c1ccc2c(n1)OCc1cc(-n3cccn3)ccc1-2)C1CC(C)(C)NC(C)(C)C1 [Compound 199] | 5.00 to 6.00 | 1000 to 10000 | < 5.00 | > 10000 | 5.00 to 6.00 | < 5.00 | 5.00 to 6.00 | < 5.00 | – | –
[2H]C([2H])([2H])N(c1ccc2c(n1)OCc1cc(-n3cccn3)ccc1-2)C1C[C@H]2CCC[C@@H](C1)N2 (some centres unmarked) [Compound 200] | > 7.00 | < 100 | 6.00 to 7.00 | 100 to 1000 | > 7.00 | 6.00 to 7.00 | > 7.00 | 6.00 to 7.00 | – | –
[2H]C([2H])([2H])N(c1ccc2c(n1)OCc1cc(-n3cccn3)ccc1-2)[C@@H]1C[C@H]2CC[C@@H](C1)N2 [Compound 201] | 6.00 to 7.00 | 100 to 1000 | 6.00 to 7.00 | 1000 to 10000 | > 7.00 | 6.00 to 7.00 | 6.00 to 7.00 | 6.00 to 7.00 | – | –
c1cnn(-c2ccc3c(c2)COc2nc(N(C4CCNCC4)C4CC4)ccc2-3)c1 [Compound 202] | 5.00 to 6.00 | > 10000 | 5.00 to 6.00 | > 10000 | < 5.00 | < 5.00 | 5.00 to 6.00 | 5.00 to 6.00 | – | –
CC1(C)CC(N(c2ccc3c(n2)OCc2cc(-n4cccn4)ccc2-3)C2CC2)CC(C)(C)N1 [Compound 204] | 5.00 to 6.00 | > 10000 | 5.00 to 6.00 | > 10000 | 5.00 to 6.00 | < 5.00 | 5.00 to 6.00 | 5.00 to 6.00 | – | –
c1cc2c(cc1-c1cn[nH]c1)COc1nc(N3CCC4(CCN4)C3)ccc1-2 (centres unmarked) [Compound 217, 6-[8-(1H-pyrazol-4-yl)-6H-isochromeno[3,4-b]pyridin-3-yl]-1,6-diazaspiro[3.4]octane] | 6.00 to 7.00 | 1000 to 10000 | 5.00 to 6.00 | > 10000 | 6.00 to 7.00 | 5.00 to 6.00 | 6.00 to 7.00 | 5.00 to 6.00 | – | –
CC1(C)CC(Oc2ccc3c(n2)OCc2cc(-c4cn[nH]c4)ccc2-3)CC(C)(C)N1 [Compound 219, 8-(1H-pyrazol-4-yl)-3-((2,2,6,6-tetramethylpiperidin-4-yl)oxy)-6H-isochromeno [3,4-b] pyridine] | 6.00 to 7.00 | 100 to 1000 | 6.00 to 7.00 | > 10000 | 6.00 to 7.00 | 6.00 to 7.00 | 6.00 to 7.00 | 6.00 to 7.00 | – | –
CN1CCC12CCN(c1ccc3c(n1)OCc1cc(-c4cn[nH]c4)ccc1-3)C2 (centres unmarked) [Compound 220, 3-(1-methyl-1,6-diazaspiro[3.4]octan-6-yl)-8-(1H-pyrazol-4-yl)-6H-isochromeno[3,4-b]pyridine] | 6.00 to 7.00 | 100 to 1000 | 6.00 to 7.00 | 100 to 1000 | 6.00 to 7.00 | 5.00 to 6.00 | 6.00 to 7.00 | 6.00 to 7.00 | – | –
c1cc2c(cc1-c1cn[nH]c1)COc1nc(N3CCC34CCNCC4)ccc1-2 [Compound 221, 1-[8-(1H-pyrazol-4-yl)-6H-isochromeno[3,4-b]pyridin-3-yl]-1,7-diazaspiro[3.5]nonane 2,2,2-trifluoroacetate] | < 5.00 | > 10000 | 5.00 to 6.00 | > 10000 | < 5.00 | < 5.00 | < 5.00 | 5.00 to 6.00 | – | –
CN1CCCC2(CCN2c2ccc3c(n2)OCc2cc(-c4cn[nH]c4)ccc2-3)C1 (centres unmarked) [Compound 222, 6-methyl-1-[8-(1H-pyrazol-4-yl)-6H-isochromeno[3,4-b]pyridin-3-yl]-1,6-diazaspiro[3.5]nonane] | < 5.00 | > 10000 | < 5.00 | > 10000 | < 5.00 | < 5.00 | < 5.00 | < 5.00 | – | –
COc1cc(-c2ccc3c(c2)COc2nc(O[C@@H]4C[C@H]5CC[C@@H](C4)N5)ccc2-3)cnn1 [Compound 223, (1R,3R,5S)-3-{[8-(6-methoxypyridazin-4-yl)-6H-isochromeno[3,4-b]pyridin-3-yl]oxy}-8-azabicyclo[3.2.1]octane] | > 7.00 | < 100 | 6.00 to 7.00 | < 100 | > 7.00 | > 7.00 | > 7.00 | 6.00 to 7.00 | – | –
FC1(F)CC2CC(Oc3ccc4c(n3)OCc3cc(-c5cn[nH]c5)ccc3-4)CC1N2 (centres unmarked) [Compound 224, 6,6-difluoro-3-{[8-(1H-pyrazol-4-yl)-6H-isochromeno[3,4-b]pyridin-3-yl]oxy}-8-azabicyclo[3.2.1]octane] | 5.00 to 6.00 | 1000 to 10000 | < 5.00 | > 10000 | 5.00 to 6.00 | < 5.00 | 5.00 to 6.00 | < 5.00 | – | –
COc1cc(-c2ccc3c(c2)COc2nc(OC4CC5CC(F)(F)C(C4)N5)ccc2-3)cnn1 (centres unmarked) [Compound 225, 6,6-difluoro-3-{[8-(6-methoxypyridazin-4-yl)-6H-isochromeno[3,4-b]pyridin-3-yl]oxy}-8-azabicyclo[3.2.1]octane] | 6.00 to 7.00 | 1000 to 10000 | < 5.00 | > 10000 | 5.00 to 6.00 | < 5.00 | 6.00 to 7.00 | < 5.00 | – | –
COc1cc(-c2ccc3c(c2)COc2nc(OC4CC(C)(C)NC(C)(C)C4)ccc2-3)cnn1 [Compound 226, 3-methoxy-5-{3-[(2,2,6,6-tetramethylpiperidin-4-yl)oxy]-6H-isochromeno[3,4-b]pyridin-8-yl}pyridazine] | > 7.00 | < 100 | 6.00 to 7.00 | > 10000 | > 7.00 | 6.00 to 7.00 | > 7.00 | 6.00 to 7.00 | – | –
CN1CCC2(CC1)CCN2c1ccc2c(n1)OCc1cc(-c3cn[nH]c3)ccc1-2 [Compound 227, 7-methyl-1-[8-(1H-pyrazol-4-yl)-6H-isochromeno[3,4-b]pyridin-3-yl]-1,7-diazaspiro[3.5]nonane] | < 5.00 | > 10000 | < 5.00 | > 10000 | < 5.00 | < 5.00 | < 5.00 | < 5.00 | – | –
C[C@]12CC[C@](C)(C[C@@H](Oc3ccc4c(n3)OCc3cc(-n5cccn5)ccc3-4)C1)N2 [Compound 228] | 6.00 to 7.00 | 1000 to 10000 | 5.00 to 6.00 | 1000 to 10000 | 6.00 to 7.00 | 5.00 to 6.00 | 6.00 to 7.00 | 5.00 to 6.00 | – | –
O=c1cc(-c2ccc3c(c2)COc2nc(OC4CC5CC(F)(F)C(C4)N5)ccc2-3)cc[nH]1 (centres unmarked) [Compound 229] | – | – | < 5.00 | > 10000 | < 5.00 | < 5.00 | < 5.00 | < 5.00 | < 5.00 | > 10000
Fc1ccn(-c2ccc3c(c2)COc2nc(O[C@@H]4C[C@H]5CC[C@@H](C4)N5)ccc2-3)n1 [Compound 230, (1R,3R,5S)-3-{[8-(3-fluoropyrazol-1-yl)-6H-isochromeno[3,4-b]pyridin-3-yl]oxy}-8-azabicyclo[3.2.1]octane] | 6.00 to 7.00 | 100 to 1000 | 6.00 to 7.00 | 1000 to 10000 | 6.00 to 7.00 | 5.00 to 6.00 | 6.00 to 7.00 | 6.00 to 7.00 | – | –
COc1cc(-c2ccc3c(c2)COc2nc(N(C)C4CC(C)(C)NC(C)(C)C4)ccc2-3)cnn1 [Compound 231, N-[8-(6-methoxypyridazin-4-yl)-6H-isochromeno[3,4-b]pyridin-3-yl]-N,2,2,6,6-pentamethylpiperidin-4-amine] | 6.00 to 7.00 | 100 to 1000 | 6.00 to 7.00 | 1000 to 10000 | > 7.00 | 6.00 to 7.00 | 6.00 to 7.00 | 6.00 to 7.00 | – | –
COc1cc(-c2ccc3c(c2)COc2nc(N(C)[C@@H]4C[C@H]5COC[C@@H](C4)N5)ccc2-3)cnn1 [Compound 232, (1R,5S,7r)-N-[8-(6-methoxypyridazin-4-yl)-6H-isochromeno[3,4-b]pyridin-3-yl]-N-methyl-3-oxa-9-azabicyclo[3.3.1]nonan-7-amine] | > 7.00 | < 100 | 6.00 to 7.00 | < 100 | > 7.00 | > 7.00 | > 7.00 | 6.00 to 7.00 | – | –
